# Measurements published in patent US5686563A, “Biologically active peptides having n-terminal substitutions” (priority 1995, dated 1997).
# Square brackets hold non-standard residues; d marks the D form. Ends that are not written are not given here. Peptide text beside a SMILES is read from it. * marks the point of attachment. hArg = N=C(N)NCCCC[C@H](N)C(=O)O; Octanoyl = CCCCCCCC(=O)*
# Tests used:
# Experiment in all cases: Anaerobic antimicrobial susceptibility test (MIC)
# Assay type in all cases: cell-based
# P. gingivalis = conditions: 37° C., 24-48 hours; for MIC P. gingivalis (strain) W50: strain W50, BHI broth; for MIC P. gingivalis (strain) 9-14K-1: strain 9-14K-1, BHI broth; for MIC P. gingivalis (strain) 381: strain 381, BHI broth; for MIC P. gingivalis (strain) A7A1-28: strain A7A1-28, BHI broth; for MIC P. gingivalis (strain) FAY-19M-1: strain FAY-19M-1, BHI broth
# A. viscosus = conditions: BHI broth, 37° C., 24-48 hours
# S. mutans = conditions: BHI broth, 37° C., 24-48 hours
Molecule,MIC P. gingivalis (strain) W50 (P. gingivalis) [μl/ml],MIC P. gingivalis (strain) 9-14K-1 (P. gingivalis) [μl/ml],MIC P. gingivalis (strain) 381 (P. gingivalis) [μl/ml],MIC P. gingivalis (strain) A7A1-28 (P. gingivalis),MIC P. gingivalis (strain) FAY-19M-1 (P. gingivalis) [μl/ml],MIC A. viscos (A. viscosus) [μl/ml],MIC S. mutans (S. mutans) [μl/ml]
CC[C@H](C)[C@H](NC(=O)[C@H](CCCCNC(=N)N)NC(=O)CNC(=O)[C@H](C)NC(=O)[C@@H](NC(=O)[C@H](CCCCNC(=N)N)NC(=O)[C@H](C)NC(=O)[C@@H](NC(=O)[C@H](CCCCNC(=N)N)NC(=O)CNC(=O)[C@H](C)NC(=O)[C@@H](NC(=O)[C@H](CCCCNC(=N)N)NC(=O)[C@H](C)NC(=O)[C@@H](NC(=O)[C@H](CCCCNC(=N)N)NC(=O)CNC(=O)[C@H](C)NC(=O)[C@@H](NC(=O)[C@@H](N)CCCCNC(=N)N)[C@@H](C)CC)[C@@H](C)CC)[C@@H](C)CC)[C@@H](C)CC)[C@@H](C)CC)C(=O)N[C@@H](C)C(N)=O [(SEQ ID NO: 66)-NH2] (H-[hArg]IAG[hArg]IA[hArg]IAG[hArg]IA[hArg]IAG[hArg]IA-NH2),4,–,–,–,–,–,–
CCCCCCCC(=O)N[C@@H](CCCCN)C(=O)N[C@H](C(=O)N[C@@H](C)C(=O)NCC(=O)N[C@@H](CCCCN)C(=O)N[C@H](C(=O)N[C@@H](C)C(=O)N[C@@H](CCCCN)C(=O)N[C@H](C(=O)N[C@@H](C)C(=O)NCC(=O)N[C@@H](CCCCN)C(=O)N[C@H](C(=O)N[C@@H](C)C(=O)N[C@@H](CCCCN)C(=O)N[C@H](C(=O)N[C@@H](C)C(=O)NCC(=O)N[C@@H](CCCCN)C(=O)N[C@H](C(=O)N[C@@H](C)C(N)=O)[C@@H](C)CC)[C@@H](C)CC)[C@@H](C)CC)[C@@H](C)CC)[C@@H](C)CC)[C@@H](C)CC [Oct-(SEQ ID NO: 27)-NH2] (Octanoyl-KIAGKIAKIAGKIAKIAGKIA-NH2),16,–,–,–,–,–,–
CCCCCCCC(=O)N[C@@H](CCCCNC(=N)N)C(=O)N[C@H](C(=O)N[C@@H](C)C(=O)NCC(=O)N[C@@H](CCCCNC(=N)N)C(=O)N[C@H](C(=O)N[C@@H](C)C(=O)N[C@@H](CCCCNC(=N)N)C(=O)N[C@H](C(=O)N[C@@H](C)C(=O)NCC(=O)N[C@@H](CCCCNC(=N)N)C(=O)N[C@H](C(=O)N[C@@H](C)C(=O)N[C@@H](CCCCNC(=N)N)C(=O)N[C@H](C(=O)N[C@@H](C)C(=O)NCC(=O)N[C@@H](CCCCNC(=N)N)C(=O)N[C@H](C(=O)N[C@@H](C)C(N)=O)[C@@H](C)CC)[C@@H](C)CC)[C@@H](C)CC)[C@@H](C)CC)[C@@H](C)CC)[C@@H](C)CC [Oct-(SEQ ID NO: 66)-NH2] (Octanoyl-[hArg]IAG[hArg]IA[hArg]IAG[hArg]IA[hArg]IAG[hArg]IA-NH2),2,–,–,–,–,–,–
KVALKALKKVALKALKVALKAL-NH2 [(SEQ ID NO: 152)-NH2],4,4,32,"4,8 μl/ml",8,16,16
KIAGKIAKIAGKIAKIAGKIA-NH2 [(SEQ ID NO: 27)-NH2],4,–,–,–,–,–,–
CCCCCCCC(=O)N[C@@H](CCCCN)C(=O)N[C@H](C(=O)N[C@@H](C)C(=O)NCC(=O)N[C@@H](CCCCN)C(=O)N[C@H](C(=O)N[C@@H](C)C(=O)N[C@@H](CCCCN)C(=O)N[C@H](C(=O)N[C@@H](C)C(=O)NCC(=O)N[C@@H](CCCCN)C(=O)N[C@H](C(=O)N[C@@H](C)C(=O)N[C@@H](CCCCN)C(=O)N[C@H](C(=O)N[C@@H](C)C(=O)NCC(=O)N[C@@H](CCCCN)C(=O)N[C@H](C(=O)N[C@@H](C)C(=O)O)[C@@H](C)CC)[C@@H](C)CC)[C@@H](C)CC)[C@@H](C)CC)[C@@H](C)CC)[C@@H](C)CC [Oct-(SEQ ID NO: 27)-OH] (Octanoyl-KIAGKIAKIAGKIAKIAGKIA-OH),1,–,–,–,–,–,–
CCCCCCCC(=O)N[C@@H](CCCCN)C(=O)N[C@H](C(=O)N[C@@H](C)C(=O)N[C@@H](CCCCN)C(=O)N[C@@H](CCCCN)C(=O)N[C@H](C(=O)N[C@@H](C)C(=O)N[C@@H](CCCCN)C(=O)N[C@H](C(=O)N[C@@H](C)C(=O)N[C@@H](CCCCN)C(=O)N[C@@H](CCCCN)C(=O)N[C@H](C(=O)N[C@@H](C)C(=O)N[C@@H](CCCCN)C(=O)N[C@H](C(=O)N[C@@H](C)C(=O)N[C@@H](CCCCN)C(=O)N[C@@H](CCCCN)C(=O)N[C@H](C(=O)N[C@@H](C)C(=O)O)[C@@H](C)CC)[C@@H](C)CC)[C@@H](C)CC)[C@@H](C)CC)[C@@H](C)CC)[C@@H](C)CC [Oct-(SEQ ID NO: 86)-OH] (Octanoyl-KIAKKIAKIAKKIAKIAKKIA-OH),1,–,–,–,–,–,–
KIAKKIAKIAKKIAKIAKKIA-NH2 [(SEQ ID NO: 86)-NH2],4,8,8,2 μl/ml,–,16,4
"(SEQ ID NO: 86)-OH: (Lys Ile Ala Lys Lys Ile Ala)3 unsubstituted at the N-terminal, C-terminal OH (H-KIAKKIAKIAKKIAKIAKKIA-OH)",4,16,16,4 μl/ml,8,32,16
